# Assay results taken from ChEMBL document CHEMBL4385653, “Design, synthesis, biological evaluation of benzoyl amide derivatives containing nitrogen heterocyclic ring as potential VEGFR-2 inhibitors” (Bioorg Med Chem, 2019).
# Experiments:
# MCF7 [1] = assay: Inhibition of cell migration of human MCF7 cells assessed as relative distance between the edges of the wound at 4 uM incubated for 24 hrs by wound healing assay (reference value: 87.55%); format: functional; set-up: scale not given: the % may be the effect or the level left
# HepG2 = assay: Antiproliferative activity against human HepG2 cells assessed as inhibition of cell proliferation incubated for 48 hrs by MTT assay; format: functional, cell-based; conditions: HepG2, 48 h
# [2] = Inhibition of PDGFR (unknown origin) incubated for 30 mins by enzyme immunoassay; set-up: species or system Homo sapiens
# MCF7 [3] = assay: Suppression of mitochondrial membrane potential in human MCF7 cells assessed as red fluorescent cells level at 4 uM incubated for 12 hrs by rhodamine-123 dye based flow cytometry analysis (reference value: 99.71%); format: functional
# MCF7 [4] = assay: Induction of apoptosis in human MCF7 cells assessed as late apoptotic cells level at 2 uM incubated for 24 hrs by Annexin V-FITC/PI double staining based flow cytometry analysis (reference value: 10.1%); format: functional
# MCF7 [5] = assay: Induction of apoptosis in human MCF7 cells assessed as late necrotic cells level at 4 uM incubated for 24 hrs by Annexin V-FITC/PI double staining based flow cytometry analysis (reference value: 6.88%); format: functional
# [6] = target: Vascular endothelial growth factor receptor 2 (Homo sapiens, UniProt P35968); assay: Inhibition of VEGFR2 (unknown origin) incubated for 30 mins by enzyme immunoassay
# Vascular endothelial growth factor receptor 2, sequence (P35968 whole entry): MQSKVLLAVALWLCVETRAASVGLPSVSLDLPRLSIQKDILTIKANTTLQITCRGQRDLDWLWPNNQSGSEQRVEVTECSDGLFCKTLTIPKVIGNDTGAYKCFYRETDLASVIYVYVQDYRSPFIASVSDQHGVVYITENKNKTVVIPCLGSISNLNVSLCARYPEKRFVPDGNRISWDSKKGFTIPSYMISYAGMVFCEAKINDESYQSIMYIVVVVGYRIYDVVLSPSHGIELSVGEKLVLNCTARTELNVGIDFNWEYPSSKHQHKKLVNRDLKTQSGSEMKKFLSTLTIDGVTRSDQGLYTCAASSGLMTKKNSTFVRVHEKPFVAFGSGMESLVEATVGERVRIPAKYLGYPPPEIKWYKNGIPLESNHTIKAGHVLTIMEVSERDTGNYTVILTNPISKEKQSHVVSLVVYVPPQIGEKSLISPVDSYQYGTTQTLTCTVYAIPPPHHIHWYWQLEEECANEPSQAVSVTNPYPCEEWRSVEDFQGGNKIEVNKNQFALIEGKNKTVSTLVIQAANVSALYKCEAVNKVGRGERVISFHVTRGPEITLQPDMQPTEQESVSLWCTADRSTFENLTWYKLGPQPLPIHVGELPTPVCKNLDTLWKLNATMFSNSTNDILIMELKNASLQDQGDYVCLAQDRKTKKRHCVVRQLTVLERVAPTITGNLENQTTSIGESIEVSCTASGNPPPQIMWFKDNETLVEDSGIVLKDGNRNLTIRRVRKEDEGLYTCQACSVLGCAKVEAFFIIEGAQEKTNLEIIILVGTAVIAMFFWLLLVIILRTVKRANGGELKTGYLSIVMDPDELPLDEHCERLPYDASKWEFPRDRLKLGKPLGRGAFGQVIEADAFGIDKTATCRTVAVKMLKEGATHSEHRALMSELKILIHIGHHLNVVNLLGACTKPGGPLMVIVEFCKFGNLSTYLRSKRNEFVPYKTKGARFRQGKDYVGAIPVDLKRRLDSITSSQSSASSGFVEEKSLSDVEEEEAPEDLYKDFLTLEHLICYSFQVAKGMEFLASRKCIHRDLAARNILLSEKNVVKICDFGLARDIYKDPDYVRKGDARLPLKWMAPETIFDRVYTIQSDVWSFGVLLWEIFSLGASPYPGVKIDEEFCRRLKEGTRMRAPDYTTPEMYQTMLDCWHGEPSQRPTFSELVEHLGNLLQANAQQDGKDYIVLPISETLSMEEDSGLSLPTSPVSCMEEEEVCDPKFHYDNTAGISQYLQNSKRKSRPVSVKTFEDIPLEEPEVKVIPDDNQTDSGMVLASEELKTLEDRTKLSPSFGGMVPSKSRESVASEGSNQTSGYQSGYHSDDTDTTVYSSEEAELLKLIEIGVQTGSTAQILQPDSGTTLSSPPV
# [7] = target: Epidermal growth factor receptor (Homo sapiens, UniProt P00533); assay: Inhibition of EGFR (unknown origin) incubated for 30 mins by enzyme immunoassay
# Epidermal growth factor receptor, sequence (P00533 whole entry): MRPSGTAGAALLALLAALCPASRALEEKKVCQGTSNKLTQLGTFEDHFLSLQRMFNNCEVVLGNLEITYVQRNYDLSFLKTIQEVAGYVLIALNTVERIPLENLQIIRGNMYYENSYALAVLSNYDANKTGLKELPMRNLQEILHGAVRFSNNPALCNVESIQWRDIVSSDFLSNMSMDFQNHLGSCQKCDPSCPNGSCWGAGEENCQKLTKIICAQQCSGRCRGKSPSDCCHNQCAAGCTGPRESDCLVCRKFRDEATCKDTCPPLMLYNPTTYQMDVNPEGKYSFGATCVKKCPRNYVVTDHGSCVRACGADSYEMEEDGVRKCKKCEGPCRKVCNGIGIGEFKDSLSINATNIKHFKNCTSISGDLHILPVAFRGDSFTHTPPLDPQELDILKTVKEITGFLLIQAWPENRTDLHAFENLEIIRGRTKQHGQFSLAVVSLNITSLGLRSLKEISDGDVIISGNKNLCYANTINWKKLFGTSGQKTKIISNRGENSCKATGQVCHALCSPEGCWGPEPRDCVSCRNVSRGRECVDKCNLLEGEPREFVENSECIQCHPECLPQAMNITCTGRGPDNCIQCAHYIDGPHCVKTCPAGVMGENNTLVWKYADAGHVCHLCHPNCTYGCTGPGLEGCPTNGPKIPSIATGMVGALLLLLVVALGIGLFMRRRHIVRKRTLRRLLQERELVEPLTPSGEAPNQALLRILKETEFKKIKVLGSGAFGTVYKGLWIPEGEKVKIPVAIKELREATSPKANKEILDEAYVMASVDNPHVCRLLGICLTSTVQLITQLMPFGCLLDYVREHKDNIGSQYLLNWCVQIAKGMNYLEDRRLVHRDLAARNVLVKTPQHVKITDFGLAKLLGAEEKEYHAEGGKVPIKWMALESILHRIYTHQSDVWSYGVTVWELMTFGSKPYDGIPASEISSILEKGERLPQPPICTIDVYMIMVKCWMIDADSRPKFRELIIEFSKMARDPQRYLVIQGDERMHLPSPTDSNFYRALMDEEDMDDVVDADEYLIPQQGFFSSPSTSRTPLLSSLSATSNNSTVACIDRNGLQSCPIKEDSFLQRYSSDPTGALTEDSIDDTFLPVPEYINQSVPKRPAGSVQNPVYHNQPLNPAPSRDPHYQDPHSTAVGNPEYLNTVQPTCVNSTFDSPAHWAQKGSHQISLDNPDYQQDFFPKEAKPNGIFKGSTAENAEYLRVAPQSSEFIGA
# MCF7 [8] = assay: Induction of apoptosis in human MCF7 cells assessed as early apoptotic cells level at 4 uM incubated for 36 hrs by Annexin V-FITC/PI double staining based flow cytometry analysis (reference value: 1.06%); format: functional
# MCF7 [9] = assay: Induction of apoptosis in human MCF7 cells assessed as early apoptotic cells level at 2 uM incubated for 24 hrs by Annexin V-FITC/PI double staining based flow cytometry analysis (reference value: 6.37%); format: functional
# MCF7 [10] = assay: Induction of apoptosis in human MCF7 cells assessed as viable cells level at 4 uM incubated for 24 hrs by Annexin V-FITC/PI double staining based flow cytometry analysis (reference value: 89%); format: functional
# MCF7 [11] = assay: Induction of apoptosis in human MCF7 cells assessed as viable cells level at 4 uM incubated for 12 hrs by Annexin V-FITC/PI double staining based flow cytometry analysis (reference value: 89%); format: functional
# MCF7 [12] = assay: Induction of apoptosis in human MCF7 cells assessed as viable cells level at 4 uM incubated for 36 hrs by Annexin V-FITC/PI double staining based flow cytometry analysis (reference value: 89%); format: functional
# MCF7 [13] = assay: Inhibition of cell migration of human MCF7 cells assessed as relative distance between the edges of the wound at 4 uM incubated for 12 hrs by wound healing assay (reference value: 87.55%); format: functional; set-up: scale not given: the % may be the effect or the level left
# MCF7 [14] = assay: Induction of apoptosis in human MCF7 cells assessed as late necrotic cells level at 8 uM incubated for 24 hrs by Annexin V-FITC/PI double staining based flow cytometry analysis (reference value: 1.49%); format: functional
# MCF7 [15] = assay: Induction of apoptosis in human MCF7 cells incubated for 24 hrs by Annexin V-FITC/PI double staining based flow cytometry analysis; format: functional, cell-based
# MCF7 [16] = assay: Induction of apoptosis in human MCF7 cells assessed as early apoptotic cells level at 4 uM incubated for 24 hrs by Annexin V-FITC/PI double staining based flow cytometry analysis (reference value: 6.37%); format: functional
# MCF7 [17] = assay: Suppression of mitochondrial membrane potential in human MCF7 cells assessed as red fluorescent cells level at 8 uM incubated for 12 hrs by rhodamine-123 dye based flow cytometry analysis (reference value: 99.71%); format: functional
# MCF7 [18] = assay: Induction of apoptosis in human MCF7 cells assessed as late necrotic cells level at 2 uM incubated for 24 hrs by Annexin V-FITC/PI double staining based flow cytometry analysis (reference value: 1.49%); format: functional
# MCF7 [19] = assay: Induction of apoptosis in human MCF7 cells assessed as late apoptotic cells level at 4 uM incubated for 36 hrs by Annexin V-FITC/PI double staining based flow cytometry analysis (reference value: 3.1%); format: functional
# MCF7 [20] = assay: Induction of apoptosis in human MCF7 cells assessed as late apoptotic cells level at 8 uM incubated for 24 hrs by Annexin V-FITC/PI double staining based flow cytometry analysis (reference value: 10.1%); format: functional
# MCF7 [21] = assay: Suppression of mitochondrial membrane potential in human MCF7 cells assessed as red fluorescent cells level at 2 uM incubated for 12 hrs by rhodamine-123 dye based flow cytometry analysis (reference value: 99.71%); format: functional
# MCF7 [22] = assay: Induction of apoptosis in human MCF7 cells assessed as late necrotic cells level at 4 uM incubated for 24 hrs by Annexin V-FITC/PI double staining based flow cytometry analysis (reference value: 1.49%); format: functional
# MCF7 [23] = assay: Induction of apoptosis in human MCF7 cells assessed as early apoptotic cells level at 8 uM incubated for 24 hrs by Annexin V-FITC/PI double staining based flow cytometry analysis (reference value: 6.37%); format: functional
# MCF7 [24] = assay: Induction of apoptosis in human MCF7 cells assessed as late necrotic cells level at 4 uM incubated for 12 hrs by Annexin V-FITC/PI double staining based flow cytometry analysis (reference value: 6.88%); format: functional
# MCF7 [25] = assay: Induction of apoptosis in human MCF7 cells assessed as early apoptotic cells level at 4 uM incubated for 24 hrs by Annexin V-FITC/PI double staining based flow cytometry analysis (reference value: 1.06%); format: functional
# MCF7 [26] = assay: Induction of apoptosis in human MCF7 cells assessed as late necrotic cells level at 4 uM incubated for 36 hrs by Annexin V-FITC/PI double staining based flow cytometry analysis (reference value: 6.88%); format: functional
# HeLa = assay: Antiproliferative activity against human HeLa cells assessed as inhibition of cell proliferation incubated for 48 hrs by MTT assay; format: functional, cell-based
# A549 = assay: Antiproliferative activity against human A549 cells assessed as inhibition of cell proliferation incubated for 48 hrs by MTT assay; format: functional, cell-based; conditions: A549, 48 h
# MCF7 [27] = assay: Suppression of mitochondrial membrane potential in human MCF7 cells assessed as green fluorescent cells level at 4 uM incubated for 12 hrs by rhodamine-123 dye based flow cytometry analysis (reference value: 0.29%); format: functional
# MCF7 [28] = assay: Suppression of mitochondrial membrane potential in human MCF7 cells assessed as green fluorescent cells level at 2 uM incubated for 12 hrs by rhodamine-123 dye based flow cytometry analysis (reference value: 0.29%); format: functional
# MCF7 [29] = assay: Induction of apoptosis in human MCF7 cells assessed as viable cells level at 8 uM incubated for 24 hrs by Annexin V-FITC/PI double staining based flow cytometry analysis (reference value: 82%); format: functional
# [30] = Cytotoxicity in HEK293T cells assessed as reduction in cell viability incubated for 48 hrs by MTT assay; format: cell-based, HEK-293T; conditions: human
# MCF7 [31] = assay: Suppression of mitochondrial membrane potential in human MCF7 cells assessed as decrease in red fluorescent cells incubated for 12 hrs by rhodamine-123 dye based flow cytometry analysis; format: functional, cell-based
# MCF7 [32] = assay: Induction of apoptosis in human MCF7 cells assessed as late apoptotic cells level at 4 uM incubated for 24 hrs by Annexin V-FITC/PI double staining based flow cytometry analysis (reference value: 10.1%); format: functional
smiles,measurement,setting,value
Cc1ccc(-n2cc(NC(=O)c3cccc(NS(=O)(=O)c4ccc(Cl)cc4)c3)cn2)cc1,Activity,MCF7 [1],77.3%
same,IC50,HepG2,2.44 µM
same,IC50,[2],14.1 µM
same,Activity,MCF7 [3],80.6%
same,Activity,MCF7 [4],17.7%
same,Activity,MCF7 [5],1.14%
same,IC50,[6],0.34 µM
same,IC50,[7],8.77 µM
same,Activity,MCF7 [8],30.4%
same,Activity,MCF7 [9],9.7%
same,Activity,MCF7 [10],58.5%
same,Activity,MCF7 [11],65.6%
same,Activity,MCF7 [12],47.6%
same,Activity,MCF7 [13],90.9%
same,Activity,MCF7 [14],3.76%
same,Activity,MCF7 [15],Dose-dependent effect
same,Activity,MCF7 [16],11.9%
same,Activity,MCF7 [17],62.85%
same,Activity,MCF7 [18],2.32%
same,Activity,MCF7 [19],20.9%
same,Activity,MCF7 [20],45.2%
same,Activity,MCF7 [21],87.6%
same,Activity,MCF7 [22],2.62%
same,Activity,MCF7 [23],9.62%
same,Activity,MCF7 [24],0.349%
same,Activity,MCF7 [25],21.6%
same,Activity,MCF7 [26],1.03%
same,IC50,HeLa,4.57 µM
same,IC50,A549,15.6 µM
same,Activity,MCF7 [27],19.4%
same,Activity,MCF7 [28],12.4%
same,Activity,MCF7 [29],41.4%
same,CC50 at 48 h,[30],110 µM
same,Activity,MCF7 [31],Dose-dependent effect
same,Activity,MCF7 [32],21.4%
